Measured values from DBAASP.
In brackets after ≈: the same amount, converted by molar mass. Several values for one entry are separate records, joined by “and”; a condition that tells them apart may be missing. Equal entries are not always repeated.

Legend:
Test in all cases: ≥ marks a high value that may be exact or a test limit, other limits are often not marked, values filed in µg/mL are converted to µM
[1] = test system: Listeria ivanovii
[2] = test system: Salmonella enterica subsp. enterica serovar Enteritidis
[3] = test system: Legionella pneumophila Paris
[4] = test system: Acinetobacter baumannii ATCC 19606
[5] = test system: Staphylococcus aureus ST1065
[6] = test system: Legionella longbeachae ATCC 33484
[7] = test system: Legionella feeleii ATCC 35072
[8] = test system: Klebsiella pneumoniae ATCC 13883
[9] = test system: Saccharomyces cerevisiae
[10] = test system: Staphylococcus aureus ATCC 43300
[11] = test system: Helicobacter pylori
[12] = test system: Legionella pneumophila ATCC 33155
[13] = test system: Pseudomonas aeruginosa ATCC 27853
[14] = test system: Enterococcus faecalis ATCC 29212
[15] = test system: Staphylococcus aureus ATCC BAA-44
[16] = test system: Streptococcus pyogenes ATCC 19615
[17] = test system: Bacillus megaterium
[18] = test system: Escherichia coli ML-35p
[19] = test system: Escherichia coli ATCC 35218
[20] = test system: Candida albicans ATCC 90028
[21] = test system: Escherichia coli ATCC 25922
[22] = test system: Staphylococcus aureus ATCC 25923
[23] = test system: Staphylococcus aureus USA 300
[24] = test system: Klebsiella pneumoniae M6
[25] = test system: Staphylococcus aureus ATCC 9144
[26] = test system: Escherichia coli NCTC 12923
[27] = test system: Acinetobacter baumannii AYE
[28] = test system: Acinetobacter baumannii ATCC 17978
[29] = test system: Klebsiella pneumoniae NCTC 13368
[30] = test system: Staphylococcus aureus
[31] = test system: Escherichia coli
[32] = test system: Escherichia coli LEC001
[33] = test system: Pseudomonas aeruginosa NCTC 13437
[34] = test system: Pseudomonas aeruginosa PAO1
[35] = test system: Staphylococcus aureus NCTC 13616
[36] = test system: Escherichia coli HB101
[37] = test system: Corynebacterium glutamicum ATCC 13032
[38] = test system: Vibrio anguillarum FT1801

Work on CC[C@H](C)[C@H](NC(=O)CNC(=O)[C@H](CO)NC(=O)[C@H](CC(C)C)NC(=O)[C@@H](N)Cc1ccccc1)C(=O)N[C@H](C(=O)NCC(=O)N[C@@H](CCSC)C(=O)N[C@@H](CC(C)C)C(=O)NCC(=O)N[C@@H](CCCCN)C(=O)N[C@@H](CC(C)C)C(=O)N[C@@H](Cc1ccccc1)C(=O)O)C(C)C [FLSGIVGMLGKLF] yielded an MIC [1] of 6 µM (≈ 8.29 µg/mL), an MIC [2] of 25 µM (≈ 34.5 µg/mL) and an MIC [3] of 1.56 µM (≈ 2.16 µg/mL). The MIC [4] was 6 µM (≈ 8.29 µg/mL), the MIC [5] was 6 µM (≈ 8.29 µg/mL) and the MIC [6] was 1.56 µM (≈ 2.16 µg/mL). For the same molecule, the MIC [7] was 1.56 µM (≈ 2.16 µg/mL), the MIC [8] was 12 µM (≈ 16.6 µg/mL) and the MIC [9] was 8 µM and 12 µM. For the same molecule, the MIC [10] was 6 µM (≈ 8.29 µg/mL), the MIC [11] was 17.7 µM (≈ 24.4 µg/mL) and the MIC [12] was 3.12 µM (≈ 4.31 µg/mL). For the same molecule, the MIC [13] was 31 µM and 50 µM, the MIC [14] was 11 µM (≈ 15.1 µg/mL) and the MIC [15] was 6 µM (≈ 8.29 µg/mL). It also gave an MIC [16] of 6 µM (≈ 8.29 µg/mL), an MIC [17] of 2 µM (≈ 2.76 µg/mL) and an MIC [18] of 12 µM (≈ 16.6 µg/mL). The MIC [19] was 10 µM (≈ 13.8 µg/mL), the MIC [20] was 16 µM and 25 µM and the MIC [21] was 10 µM (≈ 13.8 µg/mL). For the same molecule, the MIC [22] was 3 µM (≈ 4.15 µg/mL).

With CC[C@H](C)[C@H](NC(=O)[C@H](CCCCN)NC(=O)[C@H](CC(C)C)NC(=O)[C@H](C)NC(=O)[C@H](C)NC(=O)[C@H](CCCCN)NC(=O)[C@H](CC(C)C)NC(=O)[C@H](C)NC(=O)[C@H](CCCCN)NC(=O)CNC(=O)[C@H](CC(C)C)NC(=O)[C@H](Cc1ccccc1)NC(=O)[C@H](CO)NC(=O)CNC(=O)[C@H](Cc1ccccc1)NC(=O)CN)C(=O)NCC(=O)N[C@@H](C)C(=O)N[C@@H](CC(N)=O)C(=O)N[C@H](C(=O)N[C@@H](CC(C)C)C(=O)NCC(=O)NCC(=O)N[C@@H](C)C(=O)N1CCC[C@H]1C(=O)N[C@@H](CCC(N)=O)C(=O)N[C@@H](CCC(N)=O)C(=O)O)C(C)C [GFGSFLGKALKAALKIGANVLGGAPQQ] the MIC [23] was 3.06 µM (≈ 8 µg/mL), the MIC [24] was 12.2 µM (≈ 32 µg/mL) and the MIC [25] was 1.53 µM (≈ 4 µg/mL). The MIC [26] was 3.06 µM (≈ 8 µg/mL), the MIC [27] was 3.06 µM (≈ 8 µg/mL) and the MIC [28] was 1.53 µM (≈ 4 µg/mL). The MIC [29] was 12.2 µM (≈ 32 µg/mL), the MIC [30] was 6 µM (≈ 15.7 µg/mL) and the MIC [31] was 12.5 µM (≈ 32.7 µg/mL). The MIC [32] was 3.06 µM (≈ 8 µg/mL), the MIC [33] was 24.5 µM (≈ 64 µg/mL) and the MIC [34] was greater than 49 µM. The MIC [35] was 1.53 µM (≈ 4 µg/mL).

CC[C@H](C)[C@H](NC(=O)[C@@H]1CCCN1C(=O)[C@H](CCCCN)NC(=O)[C@@H]1CCCN1C(=O)[C@H](CCCN=C(N)N)NC(=O)CNC(=O)[C@@H]1CCCN1C(=O)[C@H](Cc1ccccc1)NC(=O)[C@@H]1CCCN1C(=O)[C@H](CCCN=C(N)N)NC(=O)[C@@H]1CCCN1C(=O)[C@H](CCCN=C(N)N)NC(=O)CNC(=O)[C@@H]1CCCN1C(=O)[C@H](CO)NC(=O)[C@@H]1CCCN1C(=O)[C@H](Cc1c[nH]c2ccccc12)NC(=O)[C@H](CCCN=C(N)N)NC(=O)[C@@H](N)CO)C(=O)N[C@@H](Cc1ccccc1)C(=O)N[C@@H](CCCN=C(N)N)C(=O)N1CCC[C@H]1C(=O)N[C@@H](CCCN=C(N)N)C(=O)N1CCC[C@H]1C(=O)N[C@H]1CSSC[C@@H](C(=O)N[C@@H](CC(=O)O)C(=O)N[C@@H](CCCN=C(N)N)C(=O)N[C@@H](Cc2c[nH]c3ccccc23)C(=O)O)NC(=O)[C@@H]2CCCN2C(=O)[C@@H]2CSSC[C@H](NC(=O)[C@H](CC(N)=O)NC1=O)C(=O)N[C@@H](Cc1ccc(O)cc1)C(=O)N[C@@H](C)C(=O)N1CCC[C@H]1C(=O)N1CCC[C@H]1C(=O)N2 [SRWPSPGRPRPFPGRPKPIFRPRPCNCYAPPCPCDRW] showed an MIC [25] of no less than 50 µM, an MIC [36] of 6.25 µM (≈ 27.2 µg/mL) and an MIC [37] of 0.8 µM (≈ 3.48 µg/mL). The MIC [13] was 6.3 µM (≈ 27.4 µg/mL), the MIC [38] was 6.3 µM (≈ 27.4 µg/mL) and the MIC [21] was 12.5 µM (≈ 54.3 µg/mL).
